Source: ChEMBL document CHEMBL5154892, “Structure-Based Optimization and Characterization of Macrocyclic Zika Virus NS2B-NS3 Protease Inhibitors” (J Med Chem, 2022)
Calls of active or inactive are those of the source. The calls are words filed in the database; no cut-off is given here. *1 amine or outer side, *2 acyl side, *3 side chain or, on linkers, in order; H or OH if unused. Where a SMILES comes first, the peptide text is derived from it. [ ]: non-standard residue; d: D form. X2 = N=C(N)N[C@H](CCOCN[*:1])C(=O)[*:2]; X3 = O=C([C@@H](CN[*:1])Cc1ccccc1)[*:2]; X1 = O=C([C@H](CN[*:1])Cc1ccccc1)[*:2]; NMeβAla = CN(CCC(=O)[*:2])[*:1]; βAla = NCCC(=O)O; Sar = CNCC(=O)O

Tests used:
[1] = Binding affinity to Zika virus NS2B-NS3 protease using Phac-Leu-Lys-Lys-Arg-AMC as substrate measured immediately upto 10 mins by fluorogenic assay
[2] = Binding affinity to West Nile virus NSB2 (52 to 96 amino acids)-NS3 (1 to 184 amino acids) protease using Phac-Leu-Lys-Lys-Arg-AMC as substrate measured immediately upto 10 mins by fluorogenic assay
[3] = biological target: Prothrombin (Bos taurus) (UniProt P00735); experiment: Inhibition of bovine thrombin at 100 uM using Tos-Gly-Pro-Arg-AMC as substrate by fluorescence plate reader analysis
[4] = biological target: Trypsin (Sus scrofa) (UniProt P00761); experiment: Inhibition of porcine trypsin at 100 uM using Mes-D-Arg-Gly-Arg-AMC a substrate by fluorescence plate reader analysis
Trypsin (Sus scrofa), sequence (P00761 whole entry): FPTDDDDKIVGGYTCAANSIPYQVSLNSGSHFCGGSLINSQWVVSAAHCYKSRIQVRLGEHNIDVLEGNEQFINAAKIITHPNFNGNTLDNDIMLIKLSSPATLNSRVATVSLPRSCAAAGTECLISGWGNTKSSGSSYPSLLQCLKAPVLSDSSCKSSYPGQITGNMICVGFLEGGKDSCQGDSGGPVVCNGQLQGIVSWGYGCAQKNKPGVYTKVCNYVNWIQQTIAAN

[5] = system: Zika virus; experiment: Antiviral activity against Zika virus infected in human A549 cells assessed as reduction in luciferase activity at 20 uM measured up to 48 hrs post infection by luciferase assay; type: functional, organism-based
[6] = system: Zika virus; experiment: Antiviral activity against ZIKV H/PF/2013 infected in human A549 cells assessed as reduction in extracellular virus titer in cell supernatant at 80 uM measured after 24 hrs post infection by plaque assay based crystal violet staining analysis; type: functional, organism-based
[7] = system: A549; experiment: Cytotoxicity against human A549 cells assessed as cell viability upto 80 uM and measured after 24 to 48 hrs by PrestoBlue dye based microplate reader analysis; type: toxicity; settings: a549, 80 µM, time 24-48 hrs
[8] = system: A549; experiment: Cytotoxicity against human A549 cells assessed as cell viability at 2.5 to 160 uM measured after 24 to 48 hrs by PrestoBlue dye based microplate reader analysis; type: toxicity; settings: a549, 160 µM, dose lower 2.5 µM, time lower 24 hrs, dose upper 160 µM, time upper 48 hrs
[9] = system: Zika virus; experiment: Antiviral activity against ZIKV H/PF/2013 infected in human A549 cells assessed as reduction in intracellular virus titer at 80 uM measured after 48 hrs post infection by plaque assay based crystal violet staining analysis; type: functional, organism-based
[10] = system: Zika virus; experiment: Antiviral activity against ZIKV H/PF/2013 infected in human A549 cells assessed as reduction in number of infected cells at 80 uM measured after 24 hrs post infection by immunofluorescence microscopic analysis relative to control; type: functional, organism-based
[11] = system: Zika virus; experiment: Antiviral activity against ZIKV H/PF/2013 infected in human A549 cells assessed as reduction in extracellular virus titer in cell supernatant at 80 uM measured after 48 hrs post infection by plaque assay based crystal violet staining analysis; type: functional, organism-based

C[C@@H]1NC(=O)CNC(=O)CNC(=O)[C@H](NC(=N)N)CCOCNC(=O)[C@H](CCCCN)NC(=O)[C@H](CCCCN)NC1=O
Ki [1]: 92.2 nM | Ki [2]: 1170 nM

N=C(N)N[C@@H]1CCOCNC(=O)[C@H](CCCCN)NC(=O)[C@H](CCCCN)NC(=O)[C@H](Cc2ccccc2)CNC(=O)CNC(=O)CNC1=O (cyclo(GG[X3]KK[X2]))
Ki [1]: 86 nM | Ki [2]: 6490 nM

N=C(N)N[C@@H]1CCOCNC(=O)[C@H](CCCCN)NC(=O)[C@H](CCCCN)NC(=O)CNC(=O)Cc2cccc(c2)CNC1=O
Ki [1]: 41.2 nM | Ki [2]: 1760 nM

CC(C)C[C@H]1NC(=O)CCNC(=O)CNC(=O)[C@H](NC(=N)N)CCOCNC(=O)[C@H](CCCCN)NC(=O)[C@H](CCCCN)NC1=O
Ki [1]: 4.3 nM | Ki [2]: 1030 nM

CC(C)[C@@H]1NC(=O)CCNC(=O)CNC(=O)[C@H](NC(=N)N)CCOCNC(=O)[C@H](CCCCN)NC(=O)[C@H](CCCCN)NC1=O
Ki [1]: 340 nM | Ki [2]: 39700 nM

N=C(N)N[C@@H]1CCOCNC(=O)[C@H](CCCCN)NC(=O)[C@H](CCCCN)NC(=O)Cc2cccc(c2)CNC(=O)CNC1=O
inhibition [3]: < 30% | inhibition [4]: < 10% | Activity [5]: Active | Activity [6]: Active | Activity [7]: Non-Toxic

CN1CCC(=O)N[C@@H](CCCCN)C(=O)N[C@@H](CCCCN)C(=O)NCOCC[C@@H](NC(=N)N)C(=O)NCC(=O)NCC1=O (cyclo(GG[NMeβAla]KK[X2]))
Ki [1]: 490 nM | Ki [2]: 36900 nM

N=C(N)N[C@@H]1CCOCNC(=O)[C@H](CCCCN)NC(=O)[C@H](CCCCN)NC(=O)CCNC(=O)CNC(=O)CNC1=O (cyclo(GG[βAla]KK[X2]))
inhibition [3]: < 30% | inhibition [4]: < 10% | Activity [5]: Active | Activity [7]: Non-Toxic

N=C(N)N[C@@H]1CCOCNC(=O)[C@H](CCCCN)NC(=O)[C@H](CCCCN)NC(=O)[C@@H](c2ccccc2)NC(=O)CCNC(=O)CNC1=O
inhibition [3]: 55% | inhibition [4]: 33% | Ki [1]: 4.84 nM | Ki [2]: 371 nM

CN1CC(=O)NCC(=O)NCCC(=O)N[C@@H](CCCCN)C(=O)N[C@@H](CCCCN)C(=O)NCOCC[C@@H](NC(=N)N)C1=O (cyclo(G[βAla]KK[X2][Sar]))
Ki [1]: 332 nM | Ki [2]: 30500 nM

N=C(N)N[C@@H]1CCOCNC(=O)[C@H](CCCCN)NC(=O)[C@H](CCCCN)NC(=O)[C@@H](Cc2ccccc2)CNC(=O)CNC(=O)CNC1=O (cyclo(GG[X1]KK[X2]))
inhibition [3]: < 30% | inhibition [4]: < 10% | Ki [1]: 63 nM | Ki [2]: 14800 nM

N=C(N)N[C@@H]1CCOCNC(=O)[C@H](CCCCN)NC(=O)[C@H](CCCCN)NC(=O)Cc2cccc(c2)CNC(=O)[C@@H](CCc2ccccc2)NC1=O
Ki [1]: 6.02 nM | Ki [2]: 331 nM

CC(C)C[C@H]1NC(=O)[C@H](NC(=N)N)CCOCNC(=O)[C@H](CCCCN)NC(=O)[C@H](CCCCN)NC(=O)Cc2cccc(c2)CNC1=O
inhibition [3]: < 30% | inhibition [4]: < 10% | Ki [1]: 9.53 nM | Ki [2]: 276 nM

N=C(N)N[C@@H]1CCOCNC(=O)[C@H](CCCCN)NC(=O)[C@H](CCCCN)NC(=O)[C@@H](CC2CCCCC2)NC(=O)CCNC(=O)CNC1=O
inhibition [3]: < 30% | inhibition [4]: < 10% | Ki [1]: 6.94 nM | Ki [2]: 735 nM

C[C@H]1NC(=O)CNC(=O)CNC(=O)[C@H](NC(=N)N)CCOCNC(=O)[C@H](CCCCN)NC(=O)[C@H](CCCCN)NC1=O
Ki [1]: 187 nM | Ki [2]: 6970 nM

N=C(N)N[C@@H]1CCOCNC(=O)[C@H](CCCCN)NC(=O)[C@H](CCCCN)NC(=O)[C@@H](Cc2ccccc2)NC(=O)CNC(=O)CNC1=O (racemic)
Ki [1]: 139 nM | Ki [2]: 17300 nM

N=C(N)N[C@@H]1CCOCNC(=O)[C@H](CCCCN)NC(=O)[C@H](CCCCN)NC(=O)[C@@H](Cc2ccccc2)NC(=O)CCNC(=O)CNC1=O.O=C(O)C(F)(F)F
inhibition [3]: < 30% | inhibition [4]: < 10% | Activity [8]: Toxic | Ki [1]: 3.06 nM | Activity [5]: Active | Ki [2]: 1920 nM

CC(C)[C@H]1NC(=O)CCNC(=O)CNC(=O)[C@H](NC(=N)N)CCOCNC(=O)[C@H](CCCCN)NC(=O)[C@H](CCCCN)NC1=O.O=C(O)C(F)(F)F
Ki [1]: 8.26 nM | Ki [2]: 1680 nM | Activity [7]: Non-Toxic

C[C@H]1NC(=O)CCNC(=O)CNC(=O)[C@H](NC(=N)N)CCOCNC(=O)[C@H](CCCCN)NC(=O)[C@H](CCCCN)NC1=O
Ki [1]: 5.62 nM | Ki [2]: 1430 nM

N=C(N)N[C@@H]1CCOCNC(=O)[C@H](CCCCN)NC(=O)[C@H](CCCCN)NC(=O)[C@H](Cc2ccccc2)NC(=O)CNC(=O)CNC1=O
Ki [1]: 31.9 nM | Ki [2]: 657 nM

CN1CC(=O)NCCC(=O)N[C@@H](CCCCN)C(=O)N[C@@H](CCCCN)C(=O)NCOCC[C@@H](NC(=N)N)C(=O)NCC1=O (cyclo(G[Sar][βAla]KK[X2]))
Ki [1]: 333 nM | Ki [2]: 30700 nM

CC(C)C[C@@H]1NC(=O)CCNC(=O)CNC(=O)[C@H](NC(=N)N)CCOCNC(=O)[C@H](CCCCN)NC(=O)[C@H](CCCCN)NC1=O
Ki [1]: 124 nM | Ki [2]: 10300 nM

N=C(N)N[C@@H]1CCOCNC(=O)[C@H](CCCCN)NC(=O)[C@H](CCCCN)NC(=O)Cc2cccc(c2)CNC(=O)[C@@H](Cc2ccccc2)NC1=O
Ki [1]: 5.34 nM | Ki [2]: 693 nM

CC(C)[C@H]1NC(=O)[C@H](NC(=N)N)CCOCNC(=O)[C@H](CCCCN)NC(=O)[C@H](CCCCN)NC(=O)Cc2cccc(c2)CNC1=O
Ki [1]: 7.74 nM | Ki [2]: 439 nM

C[C@@H]1NC(=O)CCNC(=O)CNC(=O)[C@H](NC(=N)N)CCOCNC(=O)[C@H](CCCCN)NC(=O)[C@H](CCCCN)NC1=O
Ki [1]: 75 nM | Ki [2]: 7760 nM

N=C(N)N[C@@H]1CCOCNC(=O)[C@H](CCCCN)NC(=O)[C@H](CCCCN)NC(=O)CCNC(=O)Cc2cccc(c2)CNC1=O
Ki [1]: 81.4 nM | Ki [2]: 56500 nM

N=C(N)N[C@@H]1CCOCNC(=O)[C@H](CCCCN)NC(=O)[C@H](CCCCN)NC(=O)Cc2cccc(c2)CNC(=O)[C@@H](CCC2CCCCC2)NC1=O.O=C(O)C(F)(F)F
inhibition [3]: < 30% | Activity [9]: Active | inhibition [4]: < 10% | Ki [1]: 2.33 nM | Activity [5]: Active | Ki [2]: 219 nM | Activity [10]: Active | Activity [6]: Active | Activity [7]: Non-Toxic | Activity [11]: Active

N=C(N)N[C@@H]1CCOCNC(=O)[C@H](CCCCN)NC(=O)[C@H](CCCCN)NC(=O)[C@@H](CCc2ccccc2)NC(=O)CCNC(=O)CNC1=O
Ki [1]: 10.3 nM | Ki [2]: 1290 nM

CCCC[C@H]1NC(=O)CCNC(=O)CNC(=O)[C@H](NC(=N)N)CCOCNC(=O)[C@H](CCCCN)NC(=O)[C@H](CCCCN)NC1=O
Ki [1]: 4.94 nM | Ki [2]: 892 nM

N=C(N)N[C@@H]1CCOCNC(=O)[C@H](CCCCN)NC(=O)[C@H](CCCCN)NC(=O)Cc2cccc(c2)CNC(=O)[C@@H](CC2CCCCC2)NC1=O
inhibition [3]: < 30% | inhibition [4]: < 10% | Ki [1]: 3.59 nM | Ki [2]: 395 nM

N=C(N)N[C@@H]1CCOCNC(=O)[C@H](CCCCN)NC(=O)[C@H](CCCCN)NC(=O)[C@H]2CCCN2C(=O)CCNC(=O)CNC1=O
Ki [1]: 21 nM | Ki [2]: 2590 nM
